Reference: patent publication US20250367185A1, “TRANSLESION SYNTHESIS POLYMERASE INHIBITORS AND USES THEREOF” (THE UNIVERSITY OF VERMONT AND STATE AGRICULTURAL COLLEGE, priority 2022, published 2025)

Assays:
Format in all cases: cell-based
[1] = test system: SARS-COV-2; assay: SARS-COV-2 proliferation in cell lines, relative mRNA content
[2] = test system: p62 and LC3 in SARS-COV-2 infected cells
[3] = test system: SARS-CoV-2 infected A549-ACE2+ cells
[4] = test system: A549-ACE2+ cells infected with SARS-COV-2; assay: Microsatellite instability (MSI) in SARS-COV-2 infected cells
[5] = test system: DDR, TLS, and DNA repair genes in A549-ACE2+ cells
[6] = test system: Dengue virus; assay: Dengue virus viral load in infected A549-ACE2+ cells; conditions: 10 μM, compared to non-treated cells, data at 24 hours, 48 hours and 5 days post-infection
Procedure: FIG. 2 is a graph showing the relative reduction of mRNA in untreated A549-ACE2+ cells (“Not Treated”) and in cells post-treatment with Compound 1 (“JH Treated”) at 24 and 48 hours post-infection with Dengue virus.
FIG. 3 is a graph showing the relative reduction of mRNA in untreated A549-ACE2+ cells and cells post treatment with Compound 1 (“JH Treated”) or untreated (“Not Treated”) 5 days post-infection with Dengue virus.
Compound 1 (10 μM) was administered to A549-ACE2+ cells infected with Dengue virus and the resulting viral loads were measured (FIGS. 2 and 3). Compared to non-treated cells, those treated with Compound 1 suppressed Dengue virus by 77-fold. Data is shown 24 hours, 48 hours, and 5 days post-infection (PI).

[7] = test system: gH2AX in SARS-CoV-2 infected A549-ACE2+ cells; assay: gH2AX expression in SARS-CoV-2 infected cells; conditions: SARS-CoV-2 infected A549-ACE2+ cells at 48 hours
Procedure: Next, whether other genome instability markers were also repressed by the Compound 1 treatment in SARS-COV-2 infected cells was examined. Compound 1 treatment of the A549-ACE2+ cells suppressed transcript expression of all the DDR, TLS, and DNA repair genes. Likewise, the enhanced expression of gH2AX in SARS-CoV-2 infected A549-ACE2+ cells at 48 hours was suppressed by up to 40-fold post-Compound 1 treatment.

SMILES: CC(C)CC(=O)c1c(Nc2ccc(C(=O)O)cc2Cl)[nH]c2c(Cl)ccc([N+](=O)[O-])c2c1=O [Compound 1, 3-chloro-4-((8-chloro-3-(3-methylbutanoyl)-5-nitro-4-oxo-1,4-dihydroquinolin-2-yl)amino)benzoic acid]
- proliferation of SARS-COV-2, relative mRNA content in cells ([1]; A549-ACE2+ cells): directly suppress
- proliferation of SARS-COV-2, relative mRNA content in cells ([1]; Calu-3 cells): directly suppress
- proliferation of SARS-COV-2, relative mRNA content in cells ([1]; Vero cells): directly suppress
- expression of LC3 [2]: significantly increases
- expression of p62 [2]: significantly increases
- rescue of telomere instability [3]: did not rescue
- SARS-COV-2-dependent MSI [4]: suppress
- transcript expression of all the DDR, TLS, and DNA repair genes [5]: suppressed
- suppression of Dengue virus (viral load) [6]: 77 fold
- suppression of enhanced gH2AX expression [7]: up to 40 fold
